For nine compounds, TGI and GI50 results are on record in PubChem BioAssay (NCI).

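All cell lines were grown in 96-well plates and treated with compound for 48 hours. Abbreviation: GI50, concentration required for 50% inhibition of growth. At the TGI there is no net growth.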 Some results are limits rather than exact numbers.

Some test systems named below: HCC-2998 colon; HCT-116 colon; MALME-3M melanoma; MOLT-4 leukemia; NCI-H522 lung; SF-268 CNS; SF-539 CNS; SK-MEL-2 melanoma; U251 CNS; UO-31 renal.
Holding throughout (experiment): NCI anticancer screen, dose series, 48 h

On to `COC(=O)C1C(O)CC(c2ccccn2)N(Cc2ccccc2)C1c1ccccn1` (configuration not stated), for which the TGI with HCC-2998 colon, with HCT-116 colon, in the assay on MALME-3M melanoma, with MOLT-4 leukemia, with NCI-H522 lung and in the assay on SF-268 CNS was over 100 µM throughout. Further, the TGI with SF-539 CNS, in the assay with SK-MEL-2 melanoma, in the assay with U251 CNS and in the assay on UO-31 renal was over 100 µM each time.

As to `O=C([CH-]C(=O)c1ccccc1)c1ccccc1.O=C([CH-]C(=O)c1ccccc1)c1ccccc1.O=C([CH-]C(=O)c1ccccc1)c1ccccc1.[Nd+3].[OH3+]`, the GI50 in the assay on HCC-2998 colon is 4.73 µM; with HCT-116 colon, 4.92 µM; with MALME-3M melanoma, 9.41 µM; in the assay on MOLT-4 leukemia it was 2.24 µM; in the assay on NCI-H522 lung, 2.06 µM; with SF-268 CNS, 4.16 µM. Besides, the GI50 in the assay on SF-539 CNS was 13.7 µM; in the assay on SK-MEL-2 melanoma it was 3.97 µM; with U251 CNS, 9.22 µM; with UO-31 renal, 2.85 µM. In addition, the TGI came out at 19 µM with HCC-2998 colon; 19.1 µM with HCT-116 colon; 36.4 µM in the assay with MALME-3M melanoma; 12.5 µM in the assay with MOLT-4 leukemia; 7.28 µM in the assay on NCI-H522 lung; 31.1 µM in the assay with SF-268 CNS. Moreover, the TGI in the assay on SF-539 CNS is 45.9 µM; with SK-MEL-2 melanoma, 15.6 µM; with U251 CNS, over 100 µM; with UO-31 renal, 8.19 µM.

With `O=C(O)COc1ccc(O)c2c1C(=O)CCCC2=O`, the TGI with HCC-2998 colon, with HCT-116 colon, in the assay on MALME-3M melanoma, with MOLT-4 leukemia, with NCI-H522 lung and in the assay with SF-268 CNS was over 100 µM in each case. The TGI with SF-539 CNS, with SK-MEL-2 melanoma, with U251 CNS and with UO-31 renal was over 100 µM each time.

For the compound `CC(C)CNCC(O)COc1ccc(C(C)(C)c2ccc(OCC(O)CNCC(C)C)cc2)cc1` (configuration not stated), the GI50 in the assay on HCC-2998 colon was 2.02 µM; with HCT-116 colon it was 1.79 µM; in the assay with MALME-3M melanoma it was 1.71 µM; with MOLT-4 leukemia it was 2.03 µM; in the assay on NCI-H522 lung, 1.87 µM; in the assay on SF-268 CNS, 3.9 µM. Moreover, the GI50 in the assay with SF-539 CNS was 1.71 µM; in the assay with SK-MEL-2 melanoma, 1.81 µM; in the assay on U251 CNS it was 1.55 µM; in the assay on UO-31 renal, 1.53 µM. Further, the TGI is 4.26 µM in the assay with HCC-2998 colon; 3.59 µM in the assay on HCT-116 colon; 3.32 µM in the assay on MALME-3M melanoma; 5.16 µM in the assay on MOLT-4 leukemia; 3.82 µM with NCI-H522 lung; 17.4 µM in the assay with SF-268 CNS. In addition, the TGI in the assay on SF-539 CNS came out at 3.23 µM; in the assay on SK-MEL-2 melanoma, 3.57 µM; with U251 CNS it was 2.91 µM; in the assay with UO-31 renal, 2.89 µM.

As for `O=C1C(c2c[nH]c3ccccc23)=C(c2c[nH]c3ccccc23)C(=O)N1O`, the GI50 in the assay on HCC-2998 colon, in the assay on HCT-116 colon, with MALME-3M melanoma, in the assay with MOLT-4 leukemia, in the assay on NCI-H522 lung and in the assay on SF-268 CNS was over 25 µM each time. Further, the GI50 in the assay on SF-539 CNS was over 25 µM; in the assay on SK-MEL-2 melanoma, over 25 µM; in the assay with U251 CNS, over 25 µM; with UO-31 renal, 5.78 µM. For the same compound, the TGI with HCC-2998 colon, with HCT-116 colon, in the assay with MALME-3M melanoma, with MOLT-4 leukemia, in the assay on NCI-H522 lung and in the assay on SF-268 CNS was over 25 µM in each case. For the same compound, the TGI in the assay on SF-539 CNS, with SK-MEL-2 melanoma, in the assay with U251 CNS and in the assay with UO-31 renal was over 25 µM in each case.

Consider `COc1ccc(-c2cc(=O)c3c(C)cc(C)nc3[nH]2)cc1`, for which the TGI with HCC-2998 colon is over 100 µM; in the assay with HCT-116 colon, over 100 µM; in the assay on MALME-3M melanoma it was 88 µM; with MOLT-4 leukemia it was 42.9 µM; in the assay with NCI-H522 lung it was over 100 µM; in the assay on SF-268 CNS it was over 100 µM. Moreover, the TGI in the assay on SF-539 CNS, with SK-MEL-2 melanoma, in the assay with U251 CNS and in the assay with UO-31 renal was over 100 µM throughout. The GI50 was 36.5 µM in the assay with HCT-116 colon and 90.7 µM in the assay with U251 CNS.

Turning to `C=C(CCCCCCCCC)CC(=O)SCCNC(=O)CCNC(=O)C(O)C(C)(C)COP(=O)(O)OP(=O)(O)OCC1OC(n2cnc3c(N)ncnc32)C(O)C1OP(=O)(O)O` (configuration not stated), the TGI in the assay on HCC-2998 colon is over 100 µM; in the assay with HCT-116 colon, over 100 µM; in the assay with MALME-3M melanoma, over 100 µM; in the assay on MOLT-4 leukemia, over 100 µM; with NCI-H522 lung it was over 100 µM; in the assay with SF-268 CNS it was 15.3 µM. The TGI in the assay with SF-539 CNS was over 85.6 µM; in the assay on SK-MEL-2 melanoma, 99.3 µM; in the assay on U251 CNS, over 100 µM; in the assay with UO-31 renal, over 100 µM.

Consider `Cc1ccc(/C(=N\N=C(N)N)c2ccccc2)cc1`, for which the GI50 with HCC-2998 colon was 0.241 µM; in the assay on HCT-116 colon, 0.342 µM; in the assay with MALME-3M melanoma it was 0.391 µM; in the assay on MOLT-4 leukemia, 0.796 µM; with NCI-H522 lung it was 0.372 µM; in the assay with SF-268 CNS it was 0.868 µM. The GI50 with SF-539 CNS is 0.265 µM; in the assay with SK-MEL-2 melanoma, 5.02 µM; with U251 CNS, 0.365 µM; with UO-31 renal, 1.12 µM. Also, the TGI with HCC-2998 colon was 0.677 µM; in the assay on HCT-116 colon it was 11.3 µM; with MALME-3M melanoma, 17.3 µM; in the assay with MOLT-4 leukemia, over 92.3 µM; in the assay with NCI-H522 lung it was 13.3 µM; in the assay with SF-268 CNS, 17.3 µM. Besides, the TGI amounted to 0.925 µM in the assay on SF-539 CNS, 28.7 µM in the assay on SK-MEL-2 melanoma, 11.5 µM in the assay with U251 CNS and 17.1 µM in the assay on UO-31 renal.

As for `CCC(=O)O[C@H]1CC[C@H]2[C@@H]3CC[C@H]4CC(=O)[C@H](C)C[C@]4(C)[C@H]3CC[C@]12C`, the GI50 with HCC-2998 colon is 49.7 µM; in the assay on HCT-116 colon, 4.49 µM; with MALME-3M melanoma, 45.7 µM; with MOLT-4 leukemia, 9.11 µM; in the assay with NCI-H522 lung, 38.4 µM; in the assay with SF-268 CNS, over 75.7 µM. The GI50 with SF-539 CNS is over 83.5 µM; in the assay with SK-MEL-2 melanoma it was 32 µM; with U251 CNS, 34 µM; with UO-31 renal, 24.5 µM. Moreover, the TGI is over 100 µM with HCC-2998 colon; over 42.6 µM in the assay on HCT-116 colon; over 100 µM in the assay on MALME-3M melanoma; over 85.6 µM in the assay with MOLT-4 leukemia; over 100 µM with NCI-H522 lung; over 100 µM in the assay with SF-268 CNS. In addition, the TGI with SF-539 CNS, in the assay on SK-MEL-2 melanoma, in the assay with U251 CNS and in the assay on UO-31 renal was over 100 µM each time.
